According to patent US20160096016A1, “METHODS AND SYSTEMS FOR REDUCING INFLAMMATION BY NEUROMODULATION AND ADMINISTRATION OF AN ANTI-INFLAMMATORY DRUG” (priority 2008, published 2016):
“Also recorded” adds a separate entry of the source.

What was measured:
[1] = system: LPS-stimulated spleen cells; assay: TNF production by LPS-stimulated spleen cells; format: cell-based, BALB/c mice; conditions: 5×10^6 cell/well, LPS 500 ng/mL, 4 hours; increasing concentrations; FIG. 7A
Protocol: (§1) In this example, differing concentrations of Paraoxon were included in various individual wells (having 5×10^6 cell/well) with a total volume of 250 microliters/well, and stimulated for 4 hours with LPS (500 ng/mL).

[2] = system: spleen cells; assay: Viability of LPS-stimulated spleen cells; conditions: concentrations of Paraoxon used in FIG. 7A; FIG. 7B
Protocol: as §1

[3] = system: TNF production; conditions: endotoxemia; nicotine 2 mg/kg i.p. 30 minutes prior to endotoxin
Protocol: Adult male BALB/c mice 8 to 12 weeks-old (20-25 g; Taconic) and adult male Sprague Dawley rats 8 to 12 weeks-old (250-300 g, Charles River Laboratories) were housed at 25° C. on a 12-hour light/dark cycle, and let acclimatize for one week before experiments were conducted. Water and regular rodent chow were available ad libitum. Experiments were performed under protocols approved by the Institutional Animal Care and Use Committee of the Feinstein Institute for Medical Research, North Shore-LIJ Health System.
Endotoxin (LPS from E. coli, 0111:B4, Sigma-Aldrich) was injected to animals (10 mg/kg, i.p. corresponding to a LD75 dose). Blood and spleens were harvested 10, 30, 60 or 120 minutes after LPS administration. We used ELISA to determine TNF concentration in serum (R&D Systems). Spleens were either snap frozen for further immunofluorescence analysis or disrupted in PBS plus protease inhibitor cocktail (Complete mini, Roche) with a tissue homogenizer (Polytron 3100, Kinematica). TNF content in spleen tissue was determined by ELISA and normalized to protein concentration (Protein Assay, BioRad). In some experiments, PBS or nicotine (Sigma-Aldrich) was injected 30 minutes (2 mg/kg, i.p.) prior to endotoxin administration. Animals were then euthanized 60 minutes later and spleens were harvested for TNF immunofluorescence or TNF quantification in tissue homogenates.

| Compound | TNF production by LPS-stimulated spleen cells [1] | toxicity / cell viability [2] | TNF production by TNF-producing splenic macrophages [3] |
| --- | --- | --- | --- |
| CCOP(=O)(OCC)Oc1ccc([N+](=O)[O-])cc1 [Paraoxon] | dose-dependent inhibition of TNF; also recorded: dose-dependently attenuated TNF levels; also recorded: the greater the inhibition of TNF | no significant toxicity; also recorded: without affecting cell viability; also recorded: no significant loss of viability | – |
| CN1CCCC1c1cccnc1 (stereo not drawn) [nicotine] | – | – | significantly attenuates TNF production |
